These results are taken from patent US9518046B2 (Calitor Sciences, LLC, priority 2015, dated 2016).

The conditions of data set [1]: literature; cited from earlier work.
For data set [2] the following is noted: literature; cited from earlier work. This is another data set of the same source.
Data set [3] is described as follows: Pharmacokinetics after intravenous and oral administration in rats. It counts as in vivo. To be noted: Rats; iv dosing; dose 1 mg/kg (0.5 for Ex. 1, 10, 11, 35; 0.48 for Ex. 24). A digest of the protocol: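 Dosing used solution, suspension or capsule formulations: 1 or 2 mg/kg IV in all species; PO 5 or 10 mg/kg in mice and rats, 10 mg/kg in dogs and monkeys. Plasma sampled from 0.083 or 0.25 h up to 24 h post-dose; concentrations determined by LC/MS/MS in MRM mode.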

Data set [4] in a line: Pharmacokinetics after intravenous and oral administration in dogs. The data set is classed as in vivo. Particulars: Dog; iv dosing 1 mg/kg. As for the experimental part:
(§1) The LC/MS/MS system used in the analysis consists of an Agilent 1200 Series vacuum degasser, binary pump, well-plate autosampler, thermostatted column compartment, the Agilent G6430 Triple Quadrupole Mass Spectrometer with an electrosprayionization (ESI) source. Quantitative analysis was carried out using MRM mode. The parameters for MRM transitions are in the Table A.
(§2) An Agilent XDB-C18, 2.1×30 mm, 3.5 M column was used for the analysis. 5 L of the samples were injected. Analysis condition: The mobile phase was 0.1% formic acid in water (A) and 0.1% formic acid in methanol (B). The flow rate was 0.4 mL/min. And the gradient of Mobile phase was in the Table B.
(§3) Alternatively, an Agilent 6330 series LC/MS/MS spectrometer equipped with G1312A binary pumps, a G1367A autosampler and a G1314C UV detector were used in the analysis. An ESI source was used on the LC/MS/MS spectrometer. The analysis was done in positive ion mode as appropriate and the MRM transition for each analyte was optimized using standard solution. A Capcell MP-C18 100×4.6 mm I.D., […] column (Phenomenex, Torrance, Calif., USA) was used during the analysis. The mobile phase was 5 mM ammonia acetate, 0.1% MeOH in water (A): 5 mM ammonia acetate, 0.1% MeOH in acetonitrile (B) (70:30, v/v). The flow rate was 0.6 mL/min. Column was maintained at ambient temperature. 20 μL of the samples were injected.
(§4) The compounds disclosed herein are assessed in pharmacokinetic studies in mice, rats, dogs or monkeys. The compounds are administered as a water solution, 2% HPMC+1% TWEEN®80 in water solution, 5% DMSO+5% solutol in saline, 4% MC suspension or capsule. For the intravenous administration, the animals are generally given at 1 or 2 mg/kg dose. For the oral (p.o.) dosing, mice and rats are generally given 5 or 10 mg/kg dose, and dogs and monkeys are generally given 10 mg/kg dose. […] The plasma solutions are collected, stored at −20° C. or −70° C. until analyzed by LC/MS/MS as described above.

Data set [5] can be described thus: Pharmacokinetics after intravenous and oral administration in monkeys. It counts as in vivo. Particulars: Monkey; iv dosing 1 mg/kg. As for the experimental part:
as §1, §2, §3, §4

A short description of data set [6]: Pharmacokinetics after intravenous and oral administration in mice. It counts as in vivo. To be noted: Mouse; iv dosing 1 mg/kg. The protocol:
as §1, §2
Alternatively, an Agilent 6330 series LC/MS/MS spectrometer equipped with G1312A binary pumps, a G1367A autosampler and a G1314C UV detector were used in the analysis. An ESI source was used on the LC/MS/MS spectrometer. The analysis was done in positive ion mode as appropriate and the MRM transition for each analyte was optimized using standard solution. A Capcell MP-C18 100×4.6 mm I.D., […] column (Phenomenex, Torrance, Calif., USA) was used during the analysis. […]
The compounds disclosed herein are assessed in pharmacokinetic studies in mice, rats, dogs or monkeys. […] The plasma solutions are collected, stored at −20° C. or −70° C. until analyzed by LC/MS/MS as described above.

In another data set the test system is PI3Kδ. Particulars: literature; cited from earlier work.
Another data set concerns protein kinases. To be noted: literature; cited from earlier work.
For data set [7] the following is noted: murine model of asthma, ovalbumin-induced airway inflammation; literature; cited from earlier work.

With `O=C1NC(=O)/C(=C\c2ccc3nccnc3c2)S1` [AS 605240], the “efficacy in mouse model of rheumatoid arthritis” value in data set [1] is on record as “efficacious”. Also, in data set [2], the “effect on onset of disease in model of systemic lupus erythematosis” value is listed as “delay onset of disease”.

Consider `CC[C@H](Nc1ncnc(N)c1-c1nc(C)no1)c1nc2cccc(Cl)c2c(=O)n1C1CC1` [Ex. 4, (S)-2-(1-((6-amino-5-(3-methyl-1,2,4-oxadiazol-5-yl)pyrimidin-4-yl)amino)-propyl)-5-chloro-3-cyclopropylquinazolin-4(3H)-one], for which the values for the CL/F in data set [3], in data set [4] and in [5] were 21.5 mL/min/kg, 9.67 mL/min/kg and 11.6 mL/min/kg, respectively.

On to `Cc1nnc(-c2c(N)ncnc2N[C@@H](C)c2nc3cccc(Cl)c3c(=O)n2-c2ccccc2)o1` [Ex. 64, (S)-2-(1-((6-amino-5-(5-methyl-1,3,4-oxadiazol-2-yl)pyrimidin-4-yl)amino)ethyl)-5-chloro-3-phenylquinazolin-4(3H)-one], for which the apparent clearance (CL/F) (usually the apparent clearance, not corrected for the fraction that reaches the circulation) in [3] turned out to be 28.3 mL/min/kg; in data set [6], 18.8 mL/min/kg; in [4] it was 1.83 mL/min/kg; in data set [5], 7.17 mL/min/kg.

For the compound `Cc1noc(-c2c(N)ncnc2N[C@@H](C)c2nc3cccc(Cl)c3c(=O)n2-c2ccccc2)n1` [Ex. 65, (S)-2-(1-((6-amino-5-(3-methyl-1,2,4-oxadiazol-5-yl)pyrimidin-4-yl)amino)ethyl)-5-chloro-3-phenylquinazolin-4(3H)-one], the results for the apparent clearance CL/F in data set [6], in data set [4] and in [5] were 31.7 mL/min/kg, 6.17 mL/min/kg and 15.3 mL/min/kg, respectively.

As to `Cc1ccccc1-n1c(Cn2cnc3c(N)ncnc32)nc2cccc(C)c2c1=O` [IC87114], the “inhibits PI3Kδ” value in the data set with PI3Kδ is “high nanomolar range (triple digit)”. Moreover, in the data set with protein kinases, the “activity against any protein kinases tested” value is given as “no activity”. Further, the “effect on inflammation and disease” value in [7] is “significantly ameliorate inflammation and disease”.
